Here are results for ten compounds from US8987195B2 (priority 2012, dated 2015).

Where two headings read alike, the source gives them in different places.

The target in assay [1] is HCV NS3/4A protease genotype 1b (Hepatitis C virus genotype 1b, UniProt P26663). The assay can be described thus: HCV NS3/4A protease time-resolved fluorescence (TRF) assay, Ki against genotype 1b. It is filed as biochemical. Particulars: IC50 [gt-1b] (nM), NS3/4A genotype 1b, enzyme 0.2 nM. Summed up: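 Enzyme was pre-incubated 30 min with inhibitor in HEPES pH 7.5 buffer (150 mM NaCl, 15% glycerol, 10 mM DTT). Reaction ran 2.5 h at room temperature with 25 nM europium TRF peptide substrate, read at ex 340/em 615 nm. Enzyme levels: 0.2 nM (1b), 0.4 nM (A156T), 0.025 nM (3a). Ki came from four-parameter IC50 via IC50=Ki(1+[S]/KM).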

The subject of assay [2] is HCV genotype 1b replicon. The assay can be described thus: HCV replicon assay, genotype 1b replicon EC50. It is filed as cell-based, Hepatitis C virus. The conditions noted are these: Hepatitis C virus, genotype 1b replicon, read-out: EC50 [gt-1b]. Summed up: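 Compound dilution series incubated 24-48 h, G418 absent, with HCV genotype 1b replicon cell lines kept under G418 selection beforehand. Luciferase signal or replicon RNA, by ^32P hybridization/protection or TaqMan normalized to cyclophilin A, was measured after washing and lysis. Four-parameter fitting against DMSO control gave EC50.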
Background: In antiviral work, replicon cells carry a viral genome segment that copies itself.

The term IC50 denotes the concentration needed to halve the response being measured. Usually EC50 stands for the concentration at which the effect is half-maximal. Regarding `Cc1nc2ccccc2c2c1O[C@]1(CC2)C[C@H]2C(=O)N[C@]3(C(=O)NS(=O)(=O)C4(C)CC4)C[C@H]3/C=C\CCCCC[C@H](NC(=O)O[C@H]3C[C@H]4CC[C@@H]3C4)C(=O)N2C1` [Example 181, (1R,2S,4S)-bicyclo[2.2.1]hept-2-yl [(2R,6S,12Z,13aS,14aR,16aS)-5′-methyl-14a-{[(1-methylcyclopropyl)sulfonyl]carbamoyl}-5,16-dioxo-1,1′,2′,5,6,7,8,9,10,11,13a,14,14a,15,16,16a-hexadecahydrospiro[cyclopropa[e]pyrrolo[1,2-a][1,4]diazacyclopentadecine-2,3′-pyrano[2,3-c]quinolin]-6-yl]carbamate], the IC50 in assay [1] worked out at 0.017 nM. The EC50 in assay [2] was 0.39 nM.
Take `Cc1nc2ccc(Cl)cc2c2c1O[C@]1(CC2)C[C@H]2C(=O)N[C@]3(C(=O)NS(=O)(=O)C4(C)CC4)C[C@H]3/C=C\CCCCC[C@H](NC(=O)OC3CCCC3)C(=O)N2C1` [Example 182, cyclopentyl [(2R,6S,12Z,13aS,14aR,16aS)-9′-chloro-5′-methyl-14a-{[(1-methylcyclopropyl)sulfonyl]carbamoyl}-5,16-dioxo-1,1′,2′,5,6,7,8,9,10,11,13a,14,14a,15,16,16a-hexadecahydrospiro[cyclopropa[e]pyrrolo[1,2-a][1,4]diazacyclopentadecine-2,3′-pyrano[2,3-c]quinolin]-6-yl]carbamate]: the IC50 in assay [1] (K+ salt) was 0.009 nM. Besides, the EC50 in assay [2] (K+ salt) was 1.7 nM.
Taken in the same sequence, the figures for `Cc1nc2ccc(Cl)cc2c2c1O[C@]1(CC2)C[C@H]2C(=O)N[C@]3(C(=O)NS(=O)(=O)C4(C)CC4)C[C@H]3/C=C\CCCCC[C@H](NC(=O)OC(C)C)C(=O)N2C1` [Example 183, propan-2-yl [(2R,6S,12Z,13aS,14aR,16aS)-9′-chloro-5′-methyl-14a-{[(1-methylcyclopropyl)sulfonyl]carbamoyl}-5,16-dioxo-1,1′,2′,5,6,7,8,9,10,11,13a,14,14a,15,16,16a-hexadecahydrospiro[cyclopropa[e]pyrrolo[1,2-a][1,4]diazacyclopentadecine-2,3′-pyrano[2,3-c]quinolin]-6-yl]carbamate] were 0.008 nM and 1.63 nM.
As for `Cc1nc2ccc(Cl)cc2c2c1O[C@]1(CC2)C[C@H]2C(=O)N[C@]3(C(=O)NS(=O)(=O)C4(C)CC4)C[C@H]3/C=C\CCCCC[C@H](NC(=O)OC3(C)CC3)C(=O)N2C1` [Example 184, 1-methylcyclopropyl [(2R,6S,12Z,13aS,14aR,16aS)-9′-chloro-5′-methyl-14a-{[(1-methylcyclopropyl)sulfonyl]carbamoyl}-5,16-dioxo-1,1′,2′,5,6,7,8,9,10,11,13a,14,14a,15,16,16a-hexadecahydrospiro[cyclopropa[e]pyrrolo[1,2-a][1,4]diazacyclopentadecine-2,3′-pyrano[2,3-c]quinolin]-6-yl]carbamate], the IC50 in assay [1] (K+ salt) was found to be 0.004 nM. The EC50 in assay [2] (K+ salt) was 4.22 nM.
Taken in the same sequence, the figures for `Cc1nc2ccc(Cl)cc2c2c1O[C@]1(CC2)C[C@H]2C(=O)N[C@]3(C(=O)NS(=O)(=O)C4(C)CC4)C[C@H]3/C=C\CCCCC[C@H](NC(=O)OC3CCC3)C(=O)N2C1` [Example 185, cyclobutyl [(2R,6S,12Z,13aS,14aR,16aS)-9′-chloro-5′-methyl-14a-{[(1-methylcyclopropyl)sulfonyl]carbamoyl}-5,16-dioxo-1,1′,2′,5,6,7,8,9,10,11,13a,14,14a,15,16,16a-hexadecahydrospiro[cyclopropa[e]pyrrolo[1,2-a][1,4]diazacyclopentadecine-2,3′-pyrano[2,3-c]quinolin]-6-yl]carbamate] were 0.005 nM and 4.14 nM.
As to `CC1(C)CCCC1OC(=O)N[C@H]1CCCCC/C=C\[C@@H]2C[C@@]2(C(=O)NS(=O)(=O)C2(C)CC2)NC(=O)[C@@H]2C[C@]3(CCc4c(c(C5CC5)nc5c(F)cccc45)O3)CN2C1=O` (stereo partly drawn) [Example 187, 2,2-dimethylcyclopentyl [(2R,6S,12Z,13aS,14aR,16aS)-5′-cyclopropyl-7′-fluoro-14a-{[(1-methylcyclopropyl)sulfonyl]carbamoyl}-5,16-dioxo-1,1′,2′,5,6,7,8,9,10,11,13a,14,14a,15,16,16a-hexadecahydrospiro[cyclopropa[e]pyrrolo[1,2-a][1,4]diazacyclopentadecine-2,3′-pyrano[2,3-c]quinolin]-6-yl]carbamate], the IC50 in assay [1] was found to be 0.023 nM. For the same compound, the concentration giving a half-maximal response (EC50) in assay [2] is 8.33 nM.
On the same counts, the results for `Cc1nc2cc(F)c(F)cc2c2c1O[C@]1(CC2)C[C@H]2C(=O)N[C@]3(C(=O)NS(=O)(=O)C4(C)CC4)C[C@H]3/C=C\CCCCC[C@H](NC(=O)OC(C)(C)C)C(=O)N2C1` [Example 188, tert-butyl [(2R,6S,12Z,13aS,14aR,16aS)-8′,9′-difluoro-5′-methyl-14a-{[(1-methylcyclopropyl)sulfonyl]carbamoyl}-5,16-dioxo-1,1′,2′,5,6,7,8,9,10,11,13a,14,14a,15,16,16a-hexadecahydrospiro[cyclopropa[e]pyrrolo[1,2-a][1,4]diazacyclopentadecine-2,3′-pyrano[2,3-c]quinolin]-6-yl]carbamate] are 0.006 nM and 3.85 nM.
Consider `Cc1nc2ccc(Cl)cc2c2c1O[C@]1(CC2)C[C@H]2C(=O)N[C@]3(C(=O)NS(=O)(=O)C4(C)CC4)C[C@H]3/C=C\CCCCC[C@H](NC(=O)OC3CCCCC3)C(=O)N2C1` [Example 190, cyclohexyl [(2R,6S,12Z,13aS,14aR,16aS)-9′-chloro-5′-methyl-14a-{[(1-methylcyclopropyl)sulfonyl]carbamoyl}-5,16-dioxo-1,1′,2′,5,6,7,8,9,10,11,13a,14,14a,15,16,16a-hexadecahydrospiro[cyclopropa[e]pyrrolo[1,2-a][1,4]diazacyclopentadecine-2,3′-pyrano[2,3-c]quinolin]-6-yl]carbamate], for which, in assay [1] (K+ salt), the IC50 worked out at 0.009 nM. The concentration giving a half-maximal response (EC50) in assay [2] (K+ salt) came out at 13.2 nM.
For the compound `CC1(S(=O)(=O)NC(=O)[C@@]23C[C@H]2/C=C\CCCCC[C@H](NC(=O)OC2(C4CC4)CC2)C(=O)N2C[C@@]4(CCc5c(c(C6CC6)nc6c(F)cccc56)O4)C[C@H]2C(=O)N3)CC1` [Example 191, 1,1′-bi(cyclopropyl)-1-yl [(2R,6S,12Z,13aS,14aR,16aS)-5′-cyclopropyl-7′-fluoro-14a-{[(1-methylcyclopropyl)sulfonyl]carbamoyl}-5,16-dioxo-1,1′,2′,5,6,7,8,9,10,11,13a,14,14a,15,16,16a-hexadecahydrospiro[cyclopropa[e]pyrrolo[1,2-a][1,4]diazacyclopentadecine-2,3′-pyrano[2,3-c]quinolin]-6-yl]carbamate], half-maximal inhibition in assay [1] (IC50) was put at 0.012 nM. Also, the EC50 in assay [2] came to 3.59 nM.
On the same counts, the results for `CC(C)(C)COC(=O)N[C@H]1CCCCC/C=C\[C@@H]2C[C@@]2(C(=O)NS(=O)(=O)C2(C)CC2)NC(=O)[C@@H]2C[C@]3(CCc4c(c(C5CC5)nc5c(F)cccc45)O3)CN2C1=O` [Example 192, 2,2-dimethylpropyl [(2R,6S,12Z,13aS,14aR,16aS)-5′-cyclopropyl-7′-fluoro-14a-{[(1-methylcyclopropyl)sulfonyl]carbamoyl}-5,16-dioxo-1,1′,2′,5,6,7,8,9,10,11,13a,14,14a,15,16,16a-hexadecahydrospiro[cyclopropa[e]pyrrolo[1,2-a][1,4]diazacyclopentadecine-2,3′-pyrano[2,3-c]quinolin]-6-yl]carbamate] are 0.019 nM and 9.61 nM.
